Reference: patent US9303045B2, “5-HT3 receptor antagonists” (Takeda Pharmaceutical Company Limited, priority 2013, dated 2016)
Counter-ions that a name gives are not always drawn.

Biological target: 5HT3a receptor expressed in HEK-293T cells (Homo sapiens (Human), UniProt P46098)
Test: Inhibition of Ca flux activity of 5HT3 in vitro assay
Assay type: cell-based
Conditions: calcium flux, 5HT 216 nM, approximate values
Procedure, shortened: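 HEK-293T cells transiently transfected with human 5HT3a, loaded 1 hour at 37° C with calcium dye in HBSS/20 mM HEPES, preincubated with compound (10^−7 to 10^−10, half-log) 10 minutes at room temperature.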

5HT3a receptor expressed in HEK-293T cells, sequence (P46098 24-478): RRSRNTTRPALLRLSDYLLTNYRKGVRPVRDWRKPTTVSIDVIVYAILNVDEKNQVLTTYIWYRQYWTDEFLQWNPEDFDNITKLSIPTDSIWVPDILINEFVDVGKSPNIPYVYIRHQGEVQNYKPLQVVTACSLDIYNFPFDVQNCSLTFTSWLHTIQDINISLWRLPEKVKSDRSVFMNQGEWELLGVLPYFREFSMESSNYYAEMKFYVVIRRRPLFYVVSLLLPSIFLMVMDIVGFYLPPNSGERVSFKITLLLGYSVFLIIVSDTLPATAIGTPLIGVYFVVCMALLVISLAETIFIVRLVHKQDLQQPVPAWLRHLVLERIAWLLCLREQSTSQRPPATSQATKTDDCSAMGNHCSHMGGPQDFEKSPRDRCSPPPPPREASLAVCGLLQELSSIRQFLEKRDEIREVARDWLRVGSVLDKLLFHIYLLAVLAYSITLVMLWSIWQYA

Row | Compound | IC50 [nM]
1 | CN1C2COCC1CC(OC(=O)c1cn(CCF)c3ccc(C#N)cc13)C2 [Example 160, (1R,5S,7s)-9-methyl-3-oxa-9-azabicyclo[3.3.1]nonan-7-yl 5-cyano-1-(2-fluoroethyl)-1H-indole-3-carboxylate, 2,2,2-trifluoroacetic acid salt] | 0.746
2 | CN1[C@@H]2COC[C@H]1C[C@@H](OC(=O)c1cn(-c3ccc(F)nn3)c3ccc(C#N)cc13)C2 [Example 161, 1R,5S,7s)-9-methyl-3-oxa-9-azabicyclo[3.3.1]nonan-7-yl 5-cyano-1-(6-fluoropyridazin-3-yl)-1H-indole-3-carboxylate] | > 1000
3 | CN1C2COCC1CC(NC(=O)c1cn(-c3nccs3)c3ncc(F)cc13)C2 [Example 162, 5-fluoro-N-((1R,5S,7s)-9-methyl-3-oxa-9-azabicyclo[3.3.1]nonan-7-yl)-1-(thiazol-2-yl)-1H-pyrrolo[2,3-b]pyridine-3-carboxamide, 2,2,2-trifluoroacetic acid salt] | 1.81
4 | CN1C2COCC1CC(NC(=O)c1cn(-c3cscn3)c3ncc(F)cc13)C2 [Example 163, 5-fluoro-N-((1R,5S,7s)-9-methyl-3-oxa-9-azabicyclo[3.3.1]nonan-7-yl)-1-(thiazol-4-yl)-1H-pyrrolo[2,3-b]pyridine-3-carboxamide, 2,2,2-trifluoroacetic acid salt] | 1.81
5 | CN1C2COCC1CC(NC(=O)c1cn(-c3cncs3)c3ncc(F)cc13)C2 [Example 164, 5-fluoro-N-((1R,5S,7s)-9-methyl-3-oxa-9-azabicyclo[3.3.1]nonan-7-yl)-1-(thiazol-5-yl)-1H-pyrrolo[2,3-b]pyridine-3-carboxamide, 2,2,2-trifluoroacetic acid salt] | 1.18
6 | CN1C2COCC1CC(NC(=O)c1nn(-c3cncs3)c3ccccc13)C2 [Example 165, N-((1R,5S,7s)-9-methyl-3-oxa-9-azabicyclo[3.3.1]nonan-7-yl)-1-(thiazol-5-yl)-1H-indazole-3-carboxamide, 2,2,2-trifluoroacetic acid salt] | 1.53
7 | Cn1ccc(-n2cc(C(=O)O[C@H]3C[C@H]4COC[C@@H](C3)N4)c3ccccc32)cc1=O [Example 168, 1R,5S,7s)-3-oxa-9-azabicyclo[3.3.1]nonan-7-yl 1-(1-methyl-2-oxo-1,2-dihydropyridin-4-yl)-1H-indole-3-carboxylate, 2,2,2-trifluoroacetic acid salt] | 1.17
8 | CN1C2COCC1CC(OC(=O)c1cn(-c3ccc(O)nn3)c3ccccc13)C2 [Example 169, (1R,5S,7s)-9-methyl-3-oxa-9-azabicyclo[3.3.1]nonan-7-yl 1-(6-hydroxypyridazin-3-yl)-1H-indole-3-carboxylate, 2,2,2-trifluoroacetic acid salt] | 0.598
9 | N#Cc1ccccc1-n1cc(C(=O)O[C@H]2C[C@H]3COC[C@@H](C2)N3)c2ccccc21 [Example 171, (1R,5S,7s)-3-oxa-9-azabicyclo[3.3.1]nonan-7-yl 1-(2-cyanophenyl)-1H-indole-3-carboxylate, 2,2,2-trifluoroacetic acid salt] | 1.11
10 | N#Cc1cccc(-n2cc(C(=O)OC3CC4COCC(C3)N4)c3ccccc32)c1 [Example 172, (1R,5S,7s)-3-oxa-9-azabicyclo[3.3.1]nonan-7-yl 1-(3-cyanophenyl)-1H-indole-3-carboxylate, 2,2,2-trifluoroacetic acid salt] | 2.89
11 | CN1C2COCC1CC(NC(=O)c1cn(-c3ccccc3)c3ccccc13)C2 [Example 174, N-((1R,5S,7s)-9-methyl-3-oxa-9-azabicyclo[3.3.1]nonan-7-yl)-1-phenyl-1H-indole-3-carboxamide, 2,2,2-trifluoroacetic acid salt] | 2.06
12 | O=C(O[C@H]1C[C@H]2COC[C@@H](C1)N2)c1cn(-c2ncco2)c2ccccc12 [Example 177, (1R,5S,7s)-3-oxa-9-azabicyclo[3.3.1]nonan-7-yl 1-(oxazol-2-yl)-1H-indole-3-carboxylate, 2,2,2-trifluoroacetic acid salt] | 3.22
13 | N#Cc1ccc(-n2cc(C(=O)O[C@H]3C[C@H]4COC[C@@H](C3)N4)c3ccccc32)cc1 [Example 180, (1R,5S,7s)-3-oxa-9-azabicyclo[3.3.1]nonan-7-yl 1-(4-cyanophenyl)-1H-indole-3-carboxylate, 2,2,2-trifluoroacetic acid salt] | 5.91
14 | CN(C(=O)c1cn(-c2cnsc2)c2ccccc12)[C@H]1C[C@H]2COC[C@@H](C1)N2 [Example 185, N-((1R,5S,7S)-3-oxa-9-azabicyclo[3.3.1]nonan-7-yl)-1-(isothiazol-4-yl)-N-methyl-1H-indole-3-carboxamide] | 3.06
15 | CN(C(=O)c1cn(-c2cnsc2)c2ccccc12)C1C[C@H]2COC[C@@H](C1)N2C (stereo partly drawn) [Example 186, 1-(isothiazol-4-yl)-N-methyl-N-((1R,5S,7S)-9-methyl-3-oxa-9-azabicyclo[3.3.1]nonan-7-yl)-1H-indole-3-carboxamide] | 1.5
16 | CN1[C@@H]2COC[C@H]1CC(NC(=O)c1cn(-c3ccnnc3)c3ccccc13)C2 (stereo partly drawn) [Example 190, N-((1R,5S,7S)-9-methyl-3-oxa-9-azabicyclo[3.3.1]nonan-7-yl)-1-(pyridazin-4-yl)-1H-indole-3-carboxamide] | 0.75
17 | (1R,3R,5S)-8-methyl-8-azabicyclo[3.2.1]octan-3-yl 1-(2,2-difluoroethyl)-1H-pyrrolo[2,3-b]pyridine-3-carboxylate 2,2,2-trifluoroacetate [Example 1] | 2.13

Row | Compound | IC50 [nM]
18 | (1R,3R,5S)-8-methyl-8-azabicyclo[3.2.1]octan-3-yl 2-chloro-1-(2,2-difluoroethyl)-1H-indole-3-carboxylate 2,2,2-trifluoroacetate [Example 4] | 1.4
19 | (1R,3R,5S)-8-methyl-8-azabicyclo[3.2.1]octan-3-yl 2-chloro-1-(methylsulfonyl)-1H-indole-3-carboxylate 2,2,2-trifluoroacetate [Example 6] | 2.33
20 | (1R,3R,5S)-8-methyl-8-azabicyclo[3.2.1]octan-3-yl 3,4-dihydro-2H-[1,3]oxazino[3,2-a]indole-10-carboxylate 2,2,2-trifluoroacetate [Example 19] | 7.72
21 | (1R,5S,7S)-3-Oxa-9-azabicyclo[3.3.1]nonan-7-yl 1-(2,2-difluoroethyl)-5-fluoro-1H-indole-3-carboxylate 2,2,2-trifluoroacetic acid [Example 13] | 0.93
22 | (1R,5S,7S)-9-methyl-3-oxa-9-azabicyclo[3.3.1]nonan-7-yl 1-(2,2-difluoroethyl)-1H-pyrrolo[2,3-b]pyridine-3-carboxylate 2,2,2-trifluoroacetate [Example 14] | 3.71
23 | (1R,5S,7S)-9-methyl-3-oxa-9-azabicyclo[3.3.1]nonan-7-yl 1-(5-fluoropyrazin-2-yl)-1H-indole-3-carboxylate, 2,2,2-trifluoroacetic acid salt [Example 33] | 14.4
24 | (1R,5S,7S)-9-methyl-3-oxa-9-azabicyclo[3.3.1]nonan-7-yl 1-(isothiazol-3-yl)-1H-indole-3-carboxylate, 2,2,2-trifluoroacetic acid salt [Example 34] | 0.74
25 | (1R,5S,7s)-3-oxa-9- azabicyclo[3.3.1]nonan- 7-yl 1-(isothiazol-3-yl)- 1H-indole-3- carboxamide, 2,2,2- trifluoroacetic acid salt [Example 145] | 2.71
26 | (1R,5S,7s)-3-oxa-9- azabicyclo[3.3.1]nonan- 7-yl 1-(isothiazol-5-yl)- 1H-indole-3- carboxamide, 2,2,2- trifluoroacetic acid salt [Example 155] | 1.26
27 | (1R,5S,7s)-3-oxa-9-azabicyclo[3.3.1]nonan-7-yl 1-(2-cyanophenyl)-1H-indole-3-carboxylate, 2,2,2-trifluoroacetic acid salt [Example 28] | 1.08
28 | (1R,5S,7s)-3-oxa-9-azabicyclo[3.3.1]nonan-7-yl 1-(pyrazin-2-yl)-1H-indole-3-carboxylate, 2,2,2-trifluoroacetic acid salt [Example 27] | 0.89
29 | (1R,5S,7s)-9-methyl-3-oxa-9-azabicyclo[3.3.1]nonan-7-yl 1-(6-fluoropyridazin-3-yl)-1H-indole-3-carboxylate [Example 25] | 3.88
30 | (1R,5S,7s)-9-methyl-3-oxa-9-azabicyclo[3.3.1]nonan-7-yl 1-(6-hydroxypyridazin-3-yl)-1H-indole-3-carboxylate, 2,2,2-trifluoroacetic acid salt [Example 32] | 1.38
31 | N-((1R,5S,7S)-3-oxa-9-azabicyclo[3.3.1]nonan-7-yl)-5-fluoro-1-(2,2,2-trifluoroethyl)-1H-indole-3-carboxamide 2,2,2-trifluoroacetate [Example 17] | 4.39
32 | N-((1R,5S,7S)-3-oxa-9-azabicyclo[3.3.1]nonan-7-yl)-5-fluoro-1-(2,2,2-trifluoroethyl)-1H-indole-3-carboxamide 2,2,2-trifluoroacetic acid [Example 16] | 3.25
33 | N-((1R,5S,7s)-9-methyl-3-oxa-9-azabicyclo[3.3.1]nonan-7-yl)-1-phenyl-1H-indole-3-carboxamide, 2,2,2-trifluoroacetic acid salt [Example 26] | 0.54
